In PubChem BioAssay (NCI):
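Assay format: 96-well plates, 48-hour exposure. TGI: concentration producing complete growth inhibition.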

Legend:
Assay in all cases: inhibition of tumour cell growth, NCI panel, 48 h
[1] = system: KM12 colon
[2] = system: CCRF-CEM leukemia
[3] = system: OVCAR-4 ovarian
[4] = system: SR leukemia
[5] = system: NCI-H23 lung
[6] = system: A498 renal
[7] = system: RXF 393 renal
[8] = system: CAKI-1 renal
[9] = system: SW-620 colon
[10] = system: MDA-MB-435
[11] = system: SK-MEL-2 melanoma
[12] = system: SK-MEL-28 melanoma
[13] = system: HOP-62 NSCLC
[14] = system: UACC-257 melanoma
[15] = system: LOX IMVI melanoma
[16] = system: HS 578T breast
[17] = system: MOLT-4 leukemia
[18] = system: BT-549 breast
[19] = system: NCI-H226 lung
[20] = system: SNB-19 CNS
[21] = system: HT29 colon
[22] = system: OVCAR-5 ovarian
[23] = system: NCI-H522 lung
[24] = system: SF-268 CNS
[25] = system: NCI-H460 lung
[26] = system: HOP-92 NSCLC
[27] = system: OVCAR-3 ovarian
[28] = system: TK-10 renal
[29] = system: HCT-116 colon
[30] = system: UACC-62 melanoma
[31] = system: UO-31 renal
[32] = system: SNB-75 CNS
[33] = system: 786-0 renal
[34] = system: M14 melanoma
[35] = system: MDA-MB-231 breast
[36] = system: OVCAR-8 ovarian
[37] = system: SN12C renal
[38] = system: EKVX NSCLC
[39] = system: K-562 leukemia
[40] = system: IGROV1 ovarian
[41] = system: MDA-N
[42] = system: ACHN renal
[43] = system: DU-145 prostate
[44] = system: MALME-3M melanoma
[45] = system: HL-60(TB) leukemia
[46] = system: U251 CNS
[47] = system: HCT-15 colon
[48] = system: SK-MEL-5 melanoma
[49] = system: PC-3 prostate
[50] = system: SF-295 CNS
[51] = system: A549 NSCLC
[52] = system: NCI/ADR-RES ovarian
[53] = system: SF-539 CNS
[54] = system: RPMI-8226 leukemia
[55] = system: HCC-2998 colon
[56] = system: COLO 205 colon
[57] = system: MCF7 breast
[58] = system: SK-OV-3 ovarian

Measured: TGI

O=C(O)CSCC(=O)O
not listed: [53] | [54] | [55] | [56] | [57] | [58]
> 100 µM: all other assays above

O=c1c2c(c1=O)C1(SCCCS1)c1cc(Cl)ccc1O2
not listed: [4] | [16]
> 100 µM: all other assays above
